Laboratory results: ChEMBL document CHEMBL1134846, “Substituted pyrazolopyridines as potent and selective PDE5 inhibitors: potential agents for treatment of erectile dysfunction” (J Med Chem, 2001)

How the values were obtained:
[1] = molecular target: T1, cGMP-specific 3',5'-cyclic phosphodiesterase (Homo sapiens, UniProt O76074); test: Inhibition of PDE5 of human platelets
[2] = Selectivity for PDE5 of human platelets over PDE6 of bovine retina
[3] = Selectivity for PDE5 of human platelets over PDE4 of rat kidney
[4] = Selectivity for PDE5 of human platelets over PDE2 of rat kidney
[5] = Selectivity for PDE5 of human platelets over PDE1 of bovine heart
[6] = Half life was determined in male rats.; assay type: ADME, organism-based; details: rat, in vivo
[7] = Bioavailability was determined in male rats.; assay type: ADME, organism-based; details: rat, in vivo
[8] = Bioavailability was determined in dogs.; assay type: ADME, organism-based, Canis lupus familiaris; details: dog, in vivo
[9] = Half life was determined in dogs; assay type: ADME, organism-based, Canis lupus familiaris; details: dog, in vivo
[10] = Half life was determined in male rats after a dose of 21 uM/kg.; assay type: ADME, organism-based; details: rat, in vivo
[11] = Bioavailability was determined in dogs after a dose of 23 uM/kg.; assay type: ADME, organism-based, Canis lupus familiaris; details: dog, in vivo
[12] = Bioavailability was determined in male rats after a dose of 21 uM/kg.; assay type: ADME, organism-based; details: rat, in vivo
[13] = molecular target: T1, cGMP-specific 3',5'-cyclic phosphodiesterase; test: Relaxant effect on rabbit corpus cavernosal tissue strips; assay type: tissue-based, Oryctolagus cuniculus, Corpus cavernosum; details: target entry is the homologue from another species
[14] = Half life was determined in dogs after a dose of 23 uM/kg.; assay type: ADME, organism-based, Canis lupus familiaris; details: dog, in vivo

Compound	IC50 [1]	IC50 ratio [2]	IC50 ratio [3]	IC50 ratio [4]	IC50 ratio [5]	also measured
CCn1ncc2c(N[C@@H](C)C3CCCCC3)c3cc(C#N)ccc3nc21	1 nM	–	–	–	–	–
CCCCNc1c(C(=O)OCC)cnc2c1cnn2CC [CARTAZOLATE]	180 nM	2	1	45	43	–
CCCc1nn(C)c2c(=O)[nH]c(-c3cc(S(=O)(=O)N4CCN(C)CC4)ccc3OCC)nc12	–	–	–	–	–	half-life [6]: 0.3 h; bioavailability [7]: 15%; bioavailability [8]: 54%; half-life [9]: 5.2 h

Now from value to compound, other results behind:

IC50 [1]	IC50 ratio [2]	IC50 ratio [3]	IC50 ratio [4]	IC50 ratio [5]	Compound	also measured
38 nM	–	–	–	–	CCn1ncc2c(NCc3ccc(OC)c(Cl)c3)c(C(=O)O)cnc21	–
1.4 nM	35	340	5200	2700	CCn1ncc2c(NCc3ccc(OC)c(Cl)c3)c(C(=O)NCCCCCO)cnc21	–
1.8 nM	22	760	8000	2500	CCn1ncc2c(NCc3ccc(OC)c(Cl)c3)c(C(=O)NC[C@@H]3CCCO3)cnc21	–
0.8 nM	47	600	9200	6400	CCn1ncc2c(NCc3ccc(OC)c(Cl)c3)c(C(=O)NCc3ccncc3)cnc21	half-life [10]: 1.2 h; bioavailability [11]: 66%; bioavailability [12]: 33%; EC50 [13]: 44 nM; half-life [14]: 2.3 h
1.6 nM	19	460	3000	2900	CCn1ncc2c(NCc3ccc(OC)c(Cl)c3)c(C(=O)NCCCN3CCCC3=O)cnc21	–
